Article PMC10244169, “Psychedelics promote plasticity by directly binding to BDNF receptor TrkB” (Nature Neuroscience, 2023)

What was measured:
[1] = target: T1, TrkB Y433F (Rattus norvegicus, UniProt Q63604, Y433F); assay: Radioligand dissociation binding of ^3H-LSD; conditions: ext fig 1c, n=3
T1 construct: expressed in transfected cells; host or cells: HEK293T
Protocol: (§1) Binding assays were performed as previously described with minor modifications. […] Samples from mouse embryo (E18) brains were also lysed, vortexed, sonicated and centrifuged for binding assays. Plates were then washed with PBS. […] For the competition binding assays with biotinylated R,R-HNK, the amino-biotinylation of R,R-HNK was performed using a commercial kit (Thermo Scientific, EZ-Link NHS-PEG4 Biotinylation Kit, 21455) and the reaction monitored by MS. A mixture of biotinylated R,R-HNK (10 µM) and unlabeled compounds (1 pM to 10 µM) in PBS was added to the 96-well plates containing the immunoprecipitated TrkB and incubated for 1 h at room temperature. […] Luminescence was determined via streptavidin conjugated with horseradish peroxidase (HRP; Thermo Fisher Scientific, 21126; 1:5,000, 1 h at room temperature) in reaction with the Pierce ECL substrate (Thermo Fisher Scientific, 32106). Luminescence from blank wells that contained all reagents but the sample lysates was used to determine nonspecific binding. To obtain the binding curves, results from binding assays were fitted to the equation of specific binding with Hill slope from GraphPad Prism 9.2. To calculate koff values, results were fitted to the equation of dissociation of one phase exponential decay from GraphPad Prism 9.2.

[2] = target: T2, TrkB WT (Rattus norvegicus, UniProt Q63604); assay: Radioligand dissociation binding of ^3H-LSD; conditions: ext fig 1c, n=3
T2 construct: expressed in transfected cells; host or cells: HEK293T
T2 sequence (Q63604 32-821): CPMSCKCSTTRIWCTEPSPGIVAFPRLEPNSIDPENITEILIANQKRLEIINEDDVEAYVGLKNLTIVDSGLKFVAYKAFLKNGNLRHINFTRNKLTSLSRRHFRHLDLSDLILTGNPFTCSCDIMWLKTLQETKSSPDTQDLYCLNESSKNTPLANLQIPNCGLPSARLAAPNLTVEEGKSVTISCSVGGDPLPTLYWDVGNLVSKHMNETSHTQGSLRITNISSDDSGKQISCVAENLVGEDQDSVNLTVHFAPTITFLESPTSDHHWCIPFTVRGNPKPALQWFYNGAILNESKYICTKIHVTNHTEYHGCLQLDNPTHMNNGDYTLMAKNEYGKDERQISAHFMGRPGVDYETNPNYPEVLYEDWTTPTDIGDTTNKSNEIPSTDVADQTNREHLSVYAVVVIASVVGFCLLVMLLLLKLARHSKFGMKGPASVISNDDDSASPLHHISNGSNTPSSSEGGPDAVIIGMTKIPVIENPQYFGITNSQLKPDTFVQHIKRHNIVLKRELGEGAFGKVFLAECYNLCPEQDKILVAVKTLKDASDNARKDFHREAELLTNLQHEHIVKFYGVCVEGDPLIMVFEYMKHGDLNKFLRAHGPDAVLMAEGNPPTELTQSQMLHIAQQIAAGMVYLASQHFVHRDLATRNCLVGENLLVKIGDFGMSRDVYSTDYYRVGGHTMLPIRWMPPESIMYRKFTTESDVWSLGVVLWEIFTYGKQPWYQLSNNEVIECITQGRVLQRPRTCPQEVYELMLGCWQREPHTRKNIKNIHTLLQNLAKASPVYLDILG
Protocol: as §1

[3] = tested on: BDNF protein; assay: BDNF protein ELISA in cortical neurons; assay type: cell-based, rat; conditions: for BDNF protein, group mean (5g): LSD 100 nM, vehicle 100
Protocol: To determine BDNF protein concentrations, ELISA was run as previously described[83] with minor modifications. […] Samples were diluted in Hanks buffer (125 mM NaCl, 5 mM KCl, 1.2 mM NaH2PO4, 1 mM CaCl2, 1.2 mM MgCl2, 1 μM ZnCl2, 10 mM glucose, 25 mM HEPES and 0.25% BSA, pH 7.4). Samples and BDNF standards (10–1,000 pg ml^−1, Peprotech) were acidified at room temperature to pH 3 by adding 1 M HCl and neutralized to pH 7 after 15 min with 1 M NaOH. A Maxisorb Nunc ELISA plate (Thermo Scientific) previously coated with a primary BDNF antibody (1:1,000 in carbonate buffer, overnight, 4 °C) and blocked (2% BSA and 0.1% Triton X-100 in Hanks buffer, 2 h, room temperature). Then, 170 µl of samples and standards were added to the plate with 30 µl of the secondary POD-conjugated BDNF antibody (1:1,000 in 6.66% BSA and 0.66% Triton X-100 in Hanks buffer). The BDNF antibodies were received from Roche and have been previously described. After incubating overnight at 4 °C the plate was washed with PBS-T. BM Blue POD substrate (Roche, 54827-17-1) was added to each well, and the colorimetric reaction was stopped after 20 min by adding 50 µl of 1 M H2SO4. Absorbance was measured at […] with a plate reader (Varioskan Flash, Thermo Scientific).

[4] = target: T3, TrkB:PLCγ1 (Mus musculus, UniProt P15209); assay: TrkB:PLCγ1 interaction in PFC and hippocampus after single LSD injection (ELISA, co-immunoprecipitation); assay type: in vivo; conditions: WT mice, single administration
T3 construct: from tissue; host or cells: prefrontal cortex and hippocampus of adult mice
T3 sequence (P15209 32-821): as the sequence (Q63604 32-821) above, with M3T, T9S, T10A, I32V, K63R, G84S, T153M, I185L, T394S, N770S counted along it
Protocol: (§2) The phosphorylation of TrkB (pY816) and interaction with PLCγ1 were assessed by enzyme-linked immunosorbent assay (ELISA) as previously described[11],[80],[81] with minor modifications. Briefly, white 96-well plates (PerkinElmer, OptiPlate 96F-HB) were precoated with goat anti-TrkB (R&D systems, AF1494; 1:500, overnight, 4 °C) antibody in carbonate buffer (pH 9.8) and blocked with 3% BSA in PBS with 0.1% Tween-20 (PBS-T) for 2 h at room temperature. […] Samples were incubated overnight at 4 °C, and 24 h later plates were washed with PBS-T and incubated with either rabbit anti-phospho-TrkB(Tyr816) (Cell Signaling Technology, 4168S; 1:2,000), rabbit anti-PLCγ1 (Cell Signaling Technologies, 5690S; 1:2,000) or rabbit anti-Trk (Cell Signaling Technologies, 92991; 1:2,000) antibodies overnight at 4 °C. After washing with PBS-T, plates were incubated with HRP-conjugated goat anti-rabbit (Bio-Rad, 170–5046; 1:5,000, 1 h, room temperature) antibody, followed by more washing with PBS-T. Finally, the chemiluminescent signal was read after brief incubation with Pierce ECL substrate (Thermo Fisher Scientific, 32106). Luminescence from blank wells that contained all reagents but the sample lysates was used to determine background signal. […]

[5] = target: T4, TrkB:PLCγ1 (Mus musculus, UniProt P15209, Y433F); assay: as above; assay type: in vivo; conditions: Y433F^+/− mice
T4 construct: from tissue; host or cells: prefrontal cortex and hippocampus of adult mice
T4 sequence (P15209 32-821 Y433F): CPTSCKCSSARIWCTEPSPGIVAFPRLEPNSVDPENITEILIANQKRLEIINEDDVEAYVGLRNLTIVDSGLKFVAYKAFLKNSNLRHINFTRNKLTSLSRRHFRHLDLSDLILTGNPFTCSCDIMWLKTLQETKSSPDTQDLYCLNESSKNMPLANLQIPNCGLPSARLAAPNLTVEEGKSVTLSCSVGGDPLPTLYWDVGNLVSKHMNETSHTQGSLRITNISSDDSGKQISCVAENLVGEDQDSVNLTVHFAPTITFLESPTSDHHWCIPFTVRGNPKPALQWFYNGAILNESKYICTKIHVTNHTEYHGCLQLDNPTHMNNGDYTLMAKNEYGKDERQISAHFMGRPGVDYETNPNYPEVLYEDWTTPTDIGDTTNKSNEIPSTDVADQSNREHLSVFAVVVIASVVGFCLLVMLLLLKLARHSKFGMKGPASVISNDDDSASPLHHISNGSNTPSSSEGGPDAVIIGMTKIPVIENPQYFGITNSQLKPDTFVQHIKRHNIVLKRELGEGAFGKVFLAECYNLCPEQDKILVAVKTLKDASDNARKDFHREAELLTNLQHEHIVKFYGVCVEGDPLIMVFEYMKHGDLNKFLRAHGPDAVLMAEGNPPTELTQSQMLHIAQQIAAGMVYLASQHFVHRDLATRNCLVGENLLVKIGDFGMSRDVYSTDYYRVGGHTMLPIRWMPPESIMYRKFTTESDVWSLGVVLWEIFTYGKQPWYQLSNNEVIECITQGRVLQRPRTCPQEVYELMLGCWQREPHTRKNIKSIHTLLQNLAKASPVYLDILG
T4 sequence (P15209 32-821, stated change not applied): as the sequence (P15209 32-821 Y433F) above, with F402Y counted along it
Protocol: as §2

[6] = target: T5, mouse TrkB (Mus musculus, UniProt P15209); assay: ^3H-LSD saturation binding to immunoprecipitated TrkB
T5 construct: from tissue; host or cells: mouse embryo (E18) brain
T5 sequence (P15209 32-821): as the sequence (P15209 32-821 Y433F) above, with F402Y counted along it
Protocol: as §1

T1 sequence (Q63604 32-821 Y433F): as the sequence (Q63604 32-821) above, with Y402F counted along it

CCN(CC)C(=O)C1C=C2c3cccc4[nH]cc(c34)CC2N(C)C1 (centres unmarked) [LSD, lysergic acid diethylamide] was tested. Which “K (dissociation, one phase exponential decay)” value [1] did it give?
The value was 0.02402.

What about the “NS (dissociation, one phase exponential decay)” value [1] of the same compound?
The value was 6.951.

What about the “Y0 (dissociation, one phase exponential decay)” value [1] of the same compound?
Its value is 108.1.

What about the “K (dissociation, one phase exponential decay)” value [2] of the same compound?
Its value is 0.008532.

What about the “NS (dissociation, one phase exponential decay)” value [2] of the same compound?
Its value is 2.667.

And the “Y0 (dissociation, one phase exponential decay)” value [2]?
The value was 110.7.

What about the “BDNF protein, group mean (5g)” value ([3]; 5 min) of the same compound?
The value was 101.1.

And the “BDNF protein, group mean (5g)” value ([3]; 1 h)?
The value was 105.6.

And the “BDNF protein, group mean (5g)” value ([3]; 24 h)?
The value was 146.4.

And the “BDNF protein, group mean (5g)” value ([3]; 72 h)?
Its value is 104.8.

And the BDNF protein levels ([3]; after LSD treatment)?
The BDNF protein levels was “elevated at 24 h”.

And the “TrkB:PLCγ1 interaction” value [4]?
Its value is “increases TrkB:PLCγ1 interaction”.

And the “TrkB:PLCγ1 interaction” value [5]?
The value was “these effects are impaired”.

What about the Kd [6] of the same compound?
The Kd was 0.425 ± 0.296 nM.

What about the Bmax ([6]; ^3H-LSD saturation, mouse TrkB) of the same compound?
Its Bmax is 7.388 ± 0.771 pmol mg^−1 protein.

What about the “Bmax (specific binding with Hill slope, best-fit)” value ([6]; ext fig 1b, TRKB.wt, n=2) of the same compound?
The value was 117.1.

And the “h (Hill slope, best-fit)” value ([6]; ext fig 1b, TRKB.wt, n=2)?
The value was 0.5552.
